Patent publication US6737383B1, “Herbicidal oxadiazolidines” (priority 1999, dated 2004)

How the values were obtained:
surinam grass = assay: Test B pre/postemergence surinam grass; type: in vivo, Brachiaria decumbens
Outline: (§1)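 Response is a visual 0-to-10 score relative to untreated plants, where 0 means no effect and 10 means complete control, taken twelve to sixteen days after application. Treatments went onto soil at planting and onto foliage of 1- to 4-leaf plants, using a surfactant-containing non-phytotoxic solvent.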

bamyardgrass = assay: Test B flood test barnyardgrass; type: in vivo, Echinochloa crus-galli
Outline: (§2)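 Plants were grown to the 2-leaf stage before treatment with test chemical, then held in a greenhouse for twelve to sixteen days. Injury was visually rated against untreated controls on a 0–10 scale, where 0 is no effect and 10 is complete control.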

rape = assay: Test B pre/postemergence rape; type: in vivo, Brassica napus
Outline: as §1

purple nutsedge = assay: Test B pre/postemergence purple nutsedge; type: in vivo, Cyperus rotundus
Outline: as §1

smallflower flatsedge = assay: Test B flood test smallflower flatsedge; type: in vivo, Cyperus difformis
Outline: as §2

duck salad = assay: Test B flood test duck salad; type: in vivo, Heteranthera limosa
Outline: as §2

giant foxtail = assay: Test B pre/postemergence giant foxtail; type: in vivo, Setaria faberii
Outline: as §1

soybean = assay: Test B pre/postemergence soybean; type: in vivo, Glycine max
Outline: as §1

bedstraw = assay: Test B pre/postemergence bedstraw; type: in vivo, Galium aparine; settings: Postemergence
Outline: as §1

blackgrass = assay: Test B pre/postemergence blackgrass; type: in vivo, Alopecurus myosuroides
Outline: as §1

sugar beet = assay: Test B pre/postemergence sugar beet; type: in vivo, Beta vulgaris
Outline: as §1

pigweed = assay: Test B pre/postemergence pigweed; type: in vivo, Amaranthus retroflexus
Outline: as §1

morningglory = assay: Test B pre/postemergence morningglory; type: in vivo, Ipomoea hederacea
Outline: as §1

velvetleaf = assay: Test B pre/postemergence velvetleaf; type: in vivo, Abutilon theophrasti
Outline: as §1

rice = assay: Test B flood test rice; type: in vivo, Oryza sativa
Outline: as §2

corn = assay: Test B pre/postemergence corn; type: in vivo, Zea mays
Outline: as §1

[1] = Postemergence, Rate 500 g/ha, scale of 0 to 10 where 0 is no effect and 10 is complete control
[2] = Preemergence, Rate 62 g/ha, scale 0 to 10 (0 no effect, 10 complete control)
[3] = Preemergence, Rate 125 g/ha, scale of 0 to 10 where 0 is no effect and 10 is complete control
[4] = Preemergence, Rate 250 g/ha, scale 0 to 10, 0 is no effect, 10 is complete control
[5] = Rate 62 g/ha, Postemergence, scale of 0 to 10 where 0 is no effect and 10 is complete control
[6] = Rate 125 g/ha, Postemergence, scale 0 to 10, 0 is no effect, 10 is complete control
[7] = Postemergence block (flood test species), Rate 250 g/ha, scale 0 to 10
[8] = Postemergence section (flood test species), Rate 500 g/ha, scale of 0 to 10 where 0 is no effect and 10 is complete control
[9] = Rate 62 g/ha, Postemergence (flood test species), scale of 0 to 10 where 0 is no effect and 10 is complete control
[10] = Rate 125 g/ha, Postemergence section (flood test species), scale 0 to 10, 0 is no effect, 10 is complete control
[11] = Postemergence, Rate 250 g/ha, scale 0 to 10
[12] = Preemergence, Rate 500 g/ha, scale 0 to 10, 0 is no effect, 10 is complete control

C=CC[Si](C)(C)Cn1c(=O)on(C(=O)N(c2ccc(F)cc2)C(C)C)c1=O [Compound 426]
B. signalgrass plant response rating (surinam grass; Postemergence, Rate 250 g/ha, scale 0 to 10, 0 no effect, 10 complete control): 7 | B. signalgrass plant response rating (surinam grass; [1]): 8 | Plant response rating, B. signalgrass (surinam grass; [2]): 4 | Plant response rating, B. signalgrass (surinam grass; [3]): 4 | B. signalgrass plant response rating (surinam grass; [4]): 6 | B. signalgrass plant response rating (surinam grass; Preemergence, Rate 500 g/ha, scale of 0 to 10 where 0 is no effect and 10 is complete control): 8 | B. signalgrass plant response rating (surinam grass; [5]): 2 | B. signalgrass plant response rating (surinam grass; [6]): 5 | Barnyardgrass plant response rating (bamyardgrass; [7]): 0 | Barnyardgrass plant response rating (bamyardgrass; [8]): 0 | Barnyardgrass plant response rating (bamyardgrass; [9]): 0 | Barnyardgrass plant response rating (bamyardgrass; [10]): 0 | Rape plant response rating (rape; [11]): 2 | Rape plant response rating (rape; [1]): 4 | Plant response rating, Rape (rape; [2]): 0 | Plant response rating, Rape (rape; [3]): 0 | Rape plant response rating (rape; [4]): 8 | Rape plant response rating (rape; [12]): 10 | Rape plant response rating (rape; [6]): 0 | Nutsedge plant response rating (purple nutsedge; [11]): 0 | Nutsedge plant response rating (purple nutsedge; [1]): 3 | Plant response rating, Nutsedge (purple nutsedge; [2]): 0 | Plant response rating, Nutsedge (purple nutsedge; [3]): 0 | Nutsedge plant response rating (purple nutsedge; [4]): 0 | Nutsedge plant response rating (purple nutsedge; [12]): 0 | Nutsedge plant response rating (purple nutsedge; [6]): 0 | S. Flatsedge plant response rating (smallflower flatsedge; [7]): 0 | S. Flatsedge plant response rating (smallflower flatsedge; [8]): 0 | S. Flatsedge plant response rating (smallflower flatsedge; [10]): 0 | Ducksalad plant response rating (duck salad; [7]): 0 | Ducksalad plant response rating (duck salad; [8]): 0 | Ducksalad plant response rating (duck salad; [9]): 0 | Ducksalad plant response rating (duck salad; [10]): 0 | Giant foxtail plant response rating (giant foxtail; [11]): 9 | Giant foxtail plant response rating (giant foxtail; [1]): 9 | Plant response rating, Giant foxtail (giant foxtail; [2]): 9 | Plant response rating, Giant foxtail (giant foxtail; [3]): 9 | Giant foxtail plant response rating (giant foxtail; [4]): 10 | Giant foxtail plant response rating (giant foxtail; [12]): 10 | Giant foxtail plant response rating (giant foxtail; [5]): 3 | Giant foxtail plant response rating (giant foxtail; [6]): 7 | Soybean plant response rating (soybean; [11]): 6 | Soybean plant response rating (soybean; [1]): 7 | Plant response rating, Soybean (soybean; [2]): 0 | Plant response rating, Soybean (soybean; [3]): 0 | Soybean plant response rating (soybean; [4]): 0 | Soybean plant response rating (soybean; [12]): 0 | Soybean plant response rating (soybean; [6]): 4 | Bedstraw plant response rating (bedstraw; Rate 250 g/ha, scale 0 to 10): 9 | Bedstraw plant response rating (bedstraw; Rate 500 g/ha, scale of 0 to 10 where 0 is no effect and 10 is complete control): 9 | Blackgrass plant response rating (blackgrass; [11]): 8 | Blackgrass plant response rating (blackgrass; [1]): 8 | Plant response rating, Blackgrass (blackgrass; [2]): 4 | Plant response rating, Blackgrass (blackgrass; [3]): 6 | Blackgrass plant response rating (blackgrass; [4]): 9 | Blackgrass plant response rating (blackgrass; [12]): 9 | Blackgrass plant response rating (blackgrass; [5]): 3 | Blackgrass plant response rating (blackgrass; [6]): 6 | Sugarbeets plant response rating (sugar beet; [11]): 3 | Sugarbeets plant response rating (sugar beet; [1]): 3 | Plant response rating, Sugarbeets (sugar beet; [2]): 0 | Plant response rating, Sugarbeets (sugar beet; [3]): 3 | Sugarbeets plant response rating (sugar beet; [4]): 4 | Sugarbeets plant response rating (sugar beet; [12]): 6 | Sugarbeets plant response rating (sugar beet; [6]): 3 | Redroot pigweed plant response rating (pigweed; [11]): 5 | Redroot pigweed plant response rating (pigweed; [1]): 6 | Plant response rating, Redroot pigweed (pigweed; [2]): 2 | Plant response rating, Redroot pigweed (pigweed; [3]): 4 | Redroot pigweed plant response rating (pigweed; [4]): 8 | Redroot pigweed plant response rating (pigweed; [12]): 10 | Redroot pigweed plant response rating (pigweed; [6]): 0 | Morningglory plant response rating (morningglory; [11]): 9 | Morningglory plant response rating (morningglory; [1]): 9 | Plant response rating, Morningglory (morningglory; [2]): 0 | Plant response rating, Morningglory (morningglory; [3]): 0 | Morningglory plant response rating (morningglory; [4]): 0 | Morningglory plant response rating (morningglory; [12]): 6 | Morningglory plant response rating (morningglory; [6]): 7 | Velvetleaf plant response rating (velvetleaf; [11]): 1 | Velvetleaf plant response rating (velvetleaf; [1]): 2 | Plant response rating, Velvetleaf (velvetleaf; [2]): 0 | Plant response rating, Velvetleaf (velvetleaf; [3]): 2 | Velvetleaf plant response rating (velvetleaf; [4]): 2 | Velvetleaf plant response rating (velvetleaf; [12]): 5 | Velvetleaf plant response rating (velvetleaf; [6]): 0 | Rice plant response rating (rice; [7]): 0 | Rice plant response rating (rice; [8]): 0 | Rice plant response rating (rice; [10]): 0 | Corn plant response rating (corn; [11]): 2 | Corn plant response rating (corn; [1]): 4 | Plant response rating, Corn (corn; [2]): 0 | Plant response rating, Corn (corn; [3]): 0 | Corn plant response rating (corn; [4]): 0 | Corn plant response rating (corn; [12]): 6 | Corn plant response rating (corn; [5]): 0 | Corn plant response rating (corn; [6]): 0
